Patent publication EP3050886A1, “Fluorescent dyes and dye precursors” (Bürkert Werke GmbH, priority 2015, dated 2016)
“Also recorded” adds a separate entry of the source.

Experiments:
[1] = test system: E. coli (ATCC 8739); assay: Labeling of viable or dead E. coli, fluorescence microscopy; assay type: cell-based, Escherichia coli; conditions: 15 µM, 30 min at 37 °C, Figure 4
Method: Escherichia coli (E. coli) (ATCC 8739) and Bacillus subtilis (B. subtilis) (ATCC 6633) strains were routinely grown in Luria Bertani (LB) broth or on LB agar plates for 18h at 37 °C. Waterborne environmental bacteria such as Enterobacter cloacae (E. cloacae), Chryseobacterium indologenes (C. indologenes), Pseudomonas aeruginosa (P. aeruginosa), and E. coli (EC18) were purchased from Eurofins™. Environmental bacteria were grown in LB broth or on casein-peptone soymeal-peptone agar plates for 18h at 37 °C.
For the staining tests, E. coli (ATCC 8739 or EC18), E. cloacae, C. indologenes, P. aeruginosa and B. subtilis were cultivated in Luria-Bertani (LB) broth until exponential phase at 37°C with shaking at 300 rpm revolutions per minutes (rpm). Bacteria were harvested and washed in sterile phosphate buffer saline solution (PBS) at pH […] by centrifugation at 10000 rpm for 3 min at room temperature (21 ± 2 °C). Then the bacteria were resuspended in PBS at a concentration of 1·10^9 bacteria/ml. Bacteria concentration was calculated according to the turbidity measure at 660 nm (A660nm=1 correspond to bacterial suspension at ∼ 5·10^8 bacteria/ ml).
Dead bacterial suspensions at 1·10^9 bacteria/ml (negative controls) of these five species of bacteria were prepared individually by addition of 20 µl of bleach containing 2.6 % active chlorine. Bacteria were treated with bleach solution for 15 min. Dead bacteria were washed twice in sterile PBS by centrifugation at 10000 rpm for 3 min at room temperature. The culturability of the negative controls was assessed by plating 100 µl of bacterial suspension onto LB agar or Caso agar and incubating the plates at 37 °C for 72 h.
Bacteria (100 µl suspension at 1·10^9 bacteria/ml) were stained with 10 µM or 15 µM of pro-fluorophore (5-CFDA, 5-PFDAE, 5-PFDAT, 5-PFDA, 5-COGDA, 5-POGDA or 5-POGAM) in 200 µl of PBS solution containing 0.6 % of glutaraldehyde. Bacteria were incubated at 37 °C for 10 - 60 min with pro-fluorophore in darkness. After bacterial staining, they were washed and resuspended in 100 µl of PBS as described above.
Staining of the bacterial suspension was observed under a fluorescent microscope. These bacteria were imaged with a Leica DM5500 microscope equipped with FITC filter. […] Images were collected with a 100x objective. Fluorescence intensity of stained bacterial suspension was also measured with FluoroLog®-3 (Horiba Jobin Yvon) spectrofluorometer equipped with sample stirring. Samples were placed in fluorescence grade quartz cuvette having a volume of 1 ml. The excitation wavelength used was 488 nm and emission wavelength used was 517 nm. The same experiment was repeated three times (n = 3).
The pro-fluorophores according to the present invention are preferably used to label E. coli cells. Viable or dead E. coli (ATCC 8739) are incubated with these fluorophores and commercial 5-CFDA as described above. […] Glutaraldehyde is added to the incubation solutions to improve the retention of the fluorophores in bacteria.
Bacteria were washed before being imaged with a Leica DM5500 microscope, 100x objective. Scale bars indicate 10 µm.

[2] = Long-term stability in anhydrous DMSO (UHPLC-MS/MS); assay type: physicochemical; conditions: 120 µM in anhydrous DMSO, room temperature (23 ± 2 °C), absence of light, after 77 days
Method: To examine whether the pro-fluorophores 5-POGDA and 5-POGAM could be stored for at least two months in solution at room temperature (23 ± 2 °C) and in the absence of light, they were dissolved in anhydrous DMSO solvent and analysed by liquid chromatography-mass spectrometry. The analysis was performed using an UHPLC-MS/MS system (LC-MS 8030, Shimadzu). 5-POGDA or AM (120 µM) were stored in anhydrous DMSO. A solution of 5-CFDA (20 µM) in acetonitrile stored at -80°C was used as internal reference for HPLC-MS/MS analysis. The solution injected was composed of 5-POGDA or AM (1.2 µM), and 5-CFDA (0,2 µM) in H2O/acetonitrile, ratio 1/1 (V/V).
Data acquisition and analysis were performed using LabSolutions version 5 software. A 1.7 µm Kinetex™ column (50 X 2.1 mm) was used for HPLC. The mobile phase flow rate was fixed at 0.5 ml/min and the following program was applied for the elution: 0-1.2 min, 5-95% B; 1.2-1.4 min, 95% B; 1.4-1.42 min, […] and 1.42-2.8 min, 5% B. Solvent A consisted of 0.05% formic acid in water and solvent B was HPLC grade acetonitrile. 1 µl was injected.
The mass spectrometer was interfaced with the UHPLC system using an electrospray ion source. […] The percentage of remaining test compound relative to t0 was measured using the peak area on the chromatogram.

[3] = Short-term chemical stability (spontaneous fluorescence generation) in aqueous buffer; assay type: physicochemical; conditions: for chemical stability in aqueous solution (in words): PBS solution containing 0.6 % glutaraldehyde, 37°C; for relative speed of spontaneous fluorescence generation (spontaneous hydrolysis): relative to 5-CFDA, 15 µM, PBS containing 0.6 % glutaraldehyde, pH ~7, 37°C, 0-60 min
Method: The short-term chemical stability of the pro-fluorophores of the present invention in an aqueous buffer was evaluated by fluorometric measurement analysis after several minutes of storage at 37°C.
Each pro-fluorophore (5-CFDA, 5-PFDAE, 5-PFDAT, 5-PFDA, 5-COGDA, 5-POGDA, 5-POGAM) was dissolved in dimethylsulfoxide (DMSO) in order to prepare a 10 mM stock solution. Short-term stability studies (0-60 min) were performed in the absence of light at 37°C. The pro-fluorophore stock solutions were diluted into a PBS solution containing 0.6 % of glutaraldehyde (pH ∼7). The pro-fuorophore final concentration was 15 µM. Samples were stored in a fluorescence grade quartz cuvette having a volume of 1 ml. Fluorescence emission spectra between 500 and 540 nm were recorded every 10 minutes. The excitation wavelength used was 488 nm. Fluorometric measurement were made with a FluoroLog®-3. (Horiba Jobin Yvon) spectrofluorometer equipped with sample stirring. The same experiment was repeated three times (n = 3).
Thus, the slope of the straight line corresponds to the speed of spontaneous fluorescence generation.

Compound	staining of viable E. coli (microscopy) [1]	percentage remaining in the solution [2]	chemical stability in aqueous solution (in words) [3]	relative speed of spontaneous fluorescence generation (spontaneous hydrolysis) [3]
CCCNC(=O)c1ccc2c(c1)C(=O)OC21c2cc(F)c(OC(C)=O)cc2Oc2cc(OC(C)=O)c(F)cc21 [Example 5-POGDA, 2',7'-difluoro-3-oxo-5-(propylcarbamoyl)-3H-spiro[isobenzofuran-1,9'-xanthene]-3',6'-diyl diacetate]	specifically stained with high fluorescence intensity	around 18%	less stable	almost six times higher
CCCNC(=O)c1ccc2c(c1)C(=O)OC21c2cc(F)c(OCOC(C)=O)cc2Oc2cc(OCOC(C)=O)c(F)cc21 [Example 5-POGAM, 2',7'-difluoro-3-oxo-5-(propylcarbamoyl)-3H-spiroisobenzofuran-1,9'-xanthene-3',6'-diyl diacetoxymethyl ether]	specifically stained with high fluorescence intensity	~65%	greater chemical stability in aqueous solution; also recorded: much more stable in aqueous solution	almost four times slower
